The results in this text go back to patent publication US11753403B2, “EIF4E inhibitors and uses thereof” (PIC Therapeutics, Inc., priority 2020, dated 2023).

A value given as a limit tells only on which side of the number the result lay.

The test deals with Human eIF4E (aa 28-217) / biotin labeled 4G2 peptide (Homo sapiens (Human), UniProt P06730). As to the kind of experiment: Human eIF4E/4G2 binding assay (TR-FRET). The settings on record: Human eIF4E/4G2 TR-FRET binding assay; head says IC50, legend says EC50. As to the method: Example 5. Compound Testing in Human eIF4E/4G2 Binding Assay
Sequence of Human eIF4E (aa 28-217) / biotin labeled 4G2 peptide (P06730 28-217): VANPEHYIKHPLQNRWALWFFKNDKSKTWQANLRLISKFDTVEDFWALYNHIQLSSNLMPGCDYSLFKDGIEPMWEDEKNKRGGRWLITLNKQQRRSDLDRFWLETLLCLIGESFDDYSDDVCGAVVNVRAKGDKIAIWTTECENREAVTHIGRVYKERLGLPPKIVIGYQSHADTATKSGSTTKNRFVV
Human eIF4E (aa 28-217) with a C-terminal His-tag was expressed in E. coli in inclusion bodies. The protein was solubilized with 8 M urea and purified under denaturing conditions using nickel-charged HisTrap HP columns (GE Healthcare). The purified protein was then refolded by diluting in 20 mM Hepes pH 7.0, 0.5 M NaCl, 1 mM DTT, 1 mM EDTA, 0.5 M arginine plus 6 M urea, and then dialyzing overnight into the same buffer without the urea. The protein was further dialyzed into 20 mM Hepes, pH 6.5, 50 mM NaCl, 1 mM EDTA, 1 mM DTT, and concentrated using Hitrap SP sepharose FF columns (GE Healthcare). The concentrated protein was dialyzed into 20 mM Hepes, pH 7.0, 0.5M NaCl, 5 mM DTT and 10% glycerol, and stored at −80° C. until use.
Test compounds (3.43 mM stock in DMSO) were diluted 2-fold in series in DMSO (10 concentration points). Compound solutions (1.2 μl/well) were added into black 384-well polypropylene microplates (Matrix, Thermal Scientific). Twenty-two microliters per well of Assay Buffer (50 mM NaPi, pH 6.5, 50 mM KCl, 1 mM DTT and 0.5 mg/ml gamma globulin) and eight microliters per well of 82.5 nM purified eIF4E in Assay Buffer were added. The samples were incubated at room temperature (20-23° C.) for 4 hours. Biotin labeled 4G2 peptide (Ac-Lys-Gln-Tyr-Asp-Arg-Glu-Phe-Leu-Leu-Asp-Phe-Gln-Phe-Met-Pro-Lys(Aha-Bio)-NH2, 1.75 μM stock in DMSO) was diluted to 0.14 μM in Assay Buffer (without DTT) and 5 μl/well was added. The samples were incubated at room temperature for 20 min. Five microliters per well of 6.4 nM Eu-streptavidin (Eu-SA, Perkin Elmer) and 80 nM Allophycocyanin (APC)-anti His antibody (Columbia Biosciences) in Assay Buffer (without DTT) were then added and the samples were incubated at room temperature for 20 min.
Assay signals were monitored by reading excitation at 340 nm and emission fluorescence at 615 nm and 665 nm on an Envision reader (Perkin Elmer). Normalized TR-FRET (time-resolved fluorescence resonance energy transfer) assay signal (Rn) was calculated by the formula: Rn=[(A−Ba−C×D)/(D−Bd)]×(Dc−Bd) Where A is the fluorescence intensity of the sample at 665 nm, • D is the fluorescence intensity of the sample at 615 nm, • Ba and Bd are plate backgrounds at 665 nm and 615 nm, respectively, • Dc is the fluorescence intensity of 0.78 nM Eu-SA in the assay buffer at 615 nm The cross-talk factor (C) is determined by the following formula: C=(Ac−Ba)/(Dc−Bd) Where Ac is the fluorescence intensity of 0.78 nM Eu-SA in the assay buffer at 665 nm.
IC50 values were calculated using xLFit program (IDBS). Table 2 below lists EC50 of some compounds, wherein A represents EC50≤1 uM; B represents 1 uM<EC50≤10 uM; and C represents EC50>10 uM.
As usually defined, the IC50 is the point on the concentration scale where inhibition reaches its midpoint. `COc1ncc(CC(CNc2nc(-c3ccc(Cl)c(Cl)c3)c(CC(C)C)s2)C(=O)O)cn1` (stereo not shown) [I-160] registered an IC50 greater than 10000 nM.

Take `Cc1ccc(-c2nc(N(CCC(=O)O)Cc3ccccc3)sc2C(C)C)cc1C` [I-75]: the IC50 is 1000 to 10000 nM.

On to `O=C(O)C(CNc1nc(-c2ccc(Cl)c(Cl)c2)c(C2CC2)s1)Cc1ccc2[nH]ccc2c1` (stereo not shown) [I-17], for which the IC50 was no more than 1000 nM.

`CC(C)Cc1sc(NCC(NC(=O)OC(C)(C)C)C(=O)O)nc1-c1ccc(Cl)c(Cl)c1` (stereo not shown) [I-137, 2-(tert-butoxycarbonylamino)-3-(4-(3,4-dichlorophenyl)-5-isobutylthiazol-2-ylamino) propanoic acid] returned an IC50 of 1000 to 10000 nM.

In the case of `CC(C)Cc1sc(-c2cccc(C(=O)O)c2)nc1-c1ccc(Cl)c(Cl)c1` [I-203, 3-(4-(3,4-dichlorophenyl)-5-isobutylthiazol-2-yl)benzoic acid], the IC50 fell in the range of 1000 to 10000 nM.

In turn, `CC(C)Cc1sc(Nc2cccc(C(F)(F)F)c2C(=O)O)nc1-c1ccc(Cl)c(Cl)c1` [I-236] returned an IC50 of no more than 1000 nM.

The molecule `CC(C)Cc1sc(N(CCC(=O)O)Cc2c[nH]c3ccccc23)nc1-c1ccc(Cl)c(Cl)c1` [I-54] returned an IC50 of 1000 to 10000 nM.

Regarding `CC(C)Cc1sc(N(CCC(=O)O)Cc2cccc(Cl)c2)nc1-c1ccc(Cl)c(Cl)c1` [I-107], the IC50 was no more than 1000 nM.

For `CC(C)c1sc(Nc2cc(-c3ccccc3)sc2C(=O)O)nc1-c1ccc(Cl)c(Cl)c1` [I-278], the IC50 was no more than 1000 nM.

`CC(C)Cc1sc(NCC(Cc2cccc(S(C)(=O)=O)c2)C(=O)O)nc1-c1ccc(Cl)c(Cl)c1` (stereo not shown) [I-172] had an IC50 of 1000 to 10000 nM.

`CC(C)Cc1sc(N(CCC(=O)O)Cc2ccccc2)nc1-c1cccc(Cl)c1` [I-79] gave an IC50 of 1000 to 10000 nM.

On to `CNC(=O)N1CCN(c2nc(-c3ccc(Cl)c(Cl)c3)c(CC(C)C)s2)CC1C(=O)O` (stereo not shown) [I-251, 4-(4-(3,4-dichlorophenyl)-5-isobutylthiazol-2-yl)-1-(methylcarbamoyl)piperazine-2-carboxylic acid], for which the IC50 fell in the range of 1000 to 10000 nM.

`Cc1noc(CN(CCC(=O)O)c2nc(-c3ccc(Cl)c(Cl)c3)c(CC(C)C)s2)n1` [I-68] returned an IC50 of 1000 to 10000 nM.

Molecule `CC(C)Cc1sc(N(CCC(=O)O)CC2CC2)nc1-c1ccc(Cl)c(Cl)c1` [I-105] had an IC50 of 1000 to 10000 nM.

Regarding `COc1cccc(-c2nc(NCC(Cc3c[nH]c4ccccc34)C(=O)O)sc2C(C)C)c1` (stereo not shown) [I-36], the IC50 is 1000 to 10000 nM.

As to `CC(C)c1sc(Nc2ncc(C3CC3)cc2C(=O)O)nc1-c1ccc(Cl)c(Cl)c1` [I-283], the IC50 is no more than 1000 nM.

In turn, `CC(C)Cc1sc(Nc2ncc(-c3ccc4ccccc4c3)cc2C(=O)O)nc1-c1ccc(Cl)c(Cl)c1` [I-322, 2-(4-(3,4-dichlorophenyl)-5-isobutylthiazol-2-ylamino)-5-(naphthalen-2-yl)nicotinic acid] came in with a half-maximal inhibitory concentration (IC50) of no more than 1000 nM.

With `CC(C)Cc1sc(Nc2cccc(C(=O)O)n2)nc1-c1ccc(Cl)c(Cl)c1` [I-219], the IC50 lay in the range of 1000 to 10000 nM.

Regarding `CC(C)Cc1sc(NCC(CCCCN)C(=O)O)nc1-c1ccc(Cl)c(Cl)c1` (stereo not shown) [I-125, 6-amino-2-((4-(3,4-dichlorophenyl)-5-isobutylthiazol-2-ylamino)methyl)hexanoic acid], the IC50 was greater than 10000 nM.

Molecule `CC(C)Cc1sc(Nc2nnccc2C(=O)O)nc1-c1ccc(Cl)c(Cl)c1` [I-239] showed an IC50 of 1000 to 10000 nM.

`CC(C)Cc1sc(N(CCC(=O)O)CC2CCCCC2)nc1-c1ccc(Cl)c(Cl)c1` [I-87]: the IC50 was no more than 1000 nM.

On to `CC(C)Cc1sc(N(CCC(=O)O)Cc2ccccc2)nc1-c1ccc(O)cc1` [I-117], for which the IC50 lay in the range of 1000 to 10000 nM.

With `CC(C)Cc1sc(N2CCN(C(=O)CCN)C(C(=O)O)C2)nc1-c1ccc(Cl)c(Cl)c1` (stereo not shown) [I-199, 1-(3-aminopropanoyl)-4-(4-(3,4-dichlorophenyl)-5-isobutylthiazol-2-yl)piperazine-2-carboxylic acid], the IC50 was greater than 10000 nM.

In turn, `CC(C)Cc1sc(N(CCC(=O)NCCN)Cc2ccccc2)nc1-c1ccc(Cl)c(Cl)c1` [I-131, N-(2-aminoethyl)-3-(benzyl(4-(3,4-dichlorophenyl)-5-isobutylthiazol-2-yl)amino)propanamide] returned an IC50 of 1000 to 10000 nM.

`Cn1nnnc1-c1sc(Nc2ncccc2C(=O)O)nc1-c1ccc(Cl)c(Cl)c1` [I-257, 2-(4-(3,4-dichlorophenyl)-5-(1-methyl-1H-tetrazol-5-yl)thiazol-2-ylamino)nicotinic acid]: the IC50 was no more than 1000 nM.

As to `CC(C)Cc1sc(NCC(CCc2ccccc2)C(=O)O)nc1-c1ccc(Cl)c(Cl)c1` (stereo not shown) [I-23], the IC50 was no more than 1000 nM.

In turn, `COc1cccc(-c2nc(NCC(Cc3cccc4c3OCO4)C(=O)O)sc2C(C)C)c1` (stereo not shown) [I-29] showed an IC50 of 1000 to 10000 nM.

In the case of `CC(C)Cc1sc(Nc2cc(C(=O)O)cc(-c3ccccc3)c2)nc1-c1ccc(Cl)c(Cl)c1` [I-215, 5-(4-(3,4-dichlorophenyl)-5-isobutylthiazol-2-ylamino)biphenyl-3-carboxylic acid], the IC50 was no more than 1000 nM.

For the molecule `CC(C)Cc1sc(NCC(N)C(=O)O)nc1-c1ccc(Cl)c(Cl)c1` (stereo not shown) [I-115, 2-amino-3-(4-(3,4-dichlorophenyl)-5-isobutylthiazol-2-ylamino)propanoic acid], the IC50 was greater than 10000 nM.

With `CC(C)Cc1sc(NCC(NC(=O)OCc2ccccc2)C(=O)O)nc1-c1ccc(Cl)c(Cl)c1` (stereo not shown) [I-138, 2-(benzyloxycarbonylamino)-3-(4-(3,4-dichlorophenyl)-5-isobutylthiazol-2-ylamino) propanoic acid], the IC50 is no more than 1000 nM.

Regarding `CC(C)c1sc(Nc2c(C(=O)O)sc3ccccc23)nc1-c1ccc(Cl)c(C(F)(F)F)c1` [I-281], the IC50 was no more than 1000 nM.

In turn, `COc1ccccc1CN(CCC(=O)O)c1nc(-c2ccc(Cl)c(Cl)c2)c(CC(C)C)s1` [I-49] came in with a 50% inhibitory concentration (IC50) of no more than 1000 nM.

The molecule `CC(C)Cc1sc(N(CCC(=O)N(C)CCN)Cc2ccccc2)nc1-c1ccc(Cl)c(Cl)c1` [I-132] registered a half-maximal inhibitory concentration (IC50) of 1000 to 10000 nM.

`CC(C)Cc1sc(NCC(Cc2ccc(N)nc2)C(=O)O)nc1-c1ccc(Cl)c(Cl)c1` (stereo not shown) [I-153] registered an IC50 greater than 10000 nM.

`CSc1ccc(CC(CNc2nc(-c3ccc(Cl)c(Cl)c3)c(CC(C)C)s2)C(=O)O)cc1` (stereo not shown) [I-174] returned an IC50 of no more than 1000 nM.

In turn, `CC(C)Cc1sc(Nc2ccc(-c3ccccc3)c(C(=O)O)c2)nc1-c1ccc(Cl)c(Cl)c1` [I-216] gave an IC50 of no more than 1000 nM.

Turning to `CC(C)c1sc(Nc2ncc(Cc3ccccc3)cc2C(=O)O)nc1-c1ccc(Cl)c(Cl)c1` [I-264], the IC50 was no more than 1000 nM.

The molecule `O=C(O)C(CNc1nc(-c2ccc(Cl)c(Cl)c2)c(CC2CC2)s1)Cc1ccccc1` (stereo not shown) [I-179] gave an IC50 of 1000 to 10000 nM.

In the case of `CC(C)Cc1sc(NCC(Cc2cccc(S(N)(=O)=O)c2)C(=O)O)nc1-c1ccc(Cl)c(Cl)c1` (stereo not shown) [I-173], the IC50 lay within 1000 to 10000 nM.

`CC(C)Cc1sc(NCC(Cc2ccc(O)nc2)C(=O)O)nc1-c1ccc(Cl)c(Cl)c1` (stereo not shown) [I-162] had an IC50 of 1000 to 10000 nM.

Regarding `COC(=O)c1ccc(Nc2nc(-c3ccc(Cl)c(Cl)c3)c(CC(C)C)s2)o1` [I-288], the IC50 is greater than 10000 nM.

Regarding `O=C(O)c1sc(C2CCCC2)cc1Nc1nc(CCc2ccccc2)c(-c2ccc(Cl)c(Cl)c2)s1` [I-309], the IC50 was no more than 1000 nM.

Molecule `CC(C)Cc1sc(Nc2ccsc2C(=O)NCCN)nc1-c1ccc(Cl)c(Cl)c1` [I-276, N-(2-aminoethyl)-3-(4-(3,4-dichlorophenyl)-5-isobutylthiazol-2-ylamino)thiophene-2-carboxamide] had a half-maximal inhibitory concentration (IC50) of 1000 to 10000 nM.

In turn, `CC(C)Cc1sc(N(CCC(=O)O)C(=O)c2ccccc2)nc1-c1ccc(Cl)c(Cl)c1` [I-144] had an IC50 of 1000 to 10000 nM.

In turn, `COc1ccc(-c2nc(N(CCC(=O)O)Cc3ccccc3)sc2CC(C)C)cc1Cl` [I-80] gave an IC50 of 1000 to 10000 nM.

Take `CC(C)Cc1sc(NCC(Cc2cccnc2)C(=O)O)nc1-c1ccc(Cl)c(Cl)c1` (stereo not shown) [I-155]: the IC50 lay within 1000 to 10000 nM.

Turning to `CC(C)Cc1sc(Nc2ccncc2C(=O)O)nc1-c1ccc(Cl)c(Cl)c1` [I-254], the IC50 was in the range of 1000 to 10000 nM.

Turning to `CC(C)c1sc(NCC(Cc2cccc(O)c2)C(=O)O)nc1-c1ccc(Cl)c(Cl)c1` (stereo not shown) [I-4], the IC50 lay in the range of 1000 to 10000 nM.

The molecule `CC(C)Cc1sc(Nc2ncccc2C(=O)O)nc1-c1ccc(Cl)c(Cl)c1` [I-233] displayed an IC50 of no more than 1000 nM.
